These results are taken from patent publication US9328099B2, “Cyanomethylpyrazole carboxamides as janus kinase inhibitors” (Merck Sharp & Dohme Corp., priority 2011, dated 2016).

In test [1] the target is JAK1 (Homo sapiens (Human), UniProt P23458). The experiment in a line: Jak Biochemical HTRF Assay, JAK1. The note with it: read-out: JAK1 IC50. The source says:
(§1) Jak Biochemical HTRF Assay Protocol
(§2) Subsequent reagent additions employed an Agilent Bravo.
Background: Time-resolved FRET reads energy transfer from a long-lived donor to a nearby acceptor.

Test [2] addresses JAK2 (Homo sapiens (Human), UniProt O60674). Put plainly: Jak Biochemical HTRF Assay, JAK2.
From the text: as §1, §2

Where [3] appears, read: HTRF biochemical assay, GST-tagged catalytic domain, top concentration tested […].

Read-outs that look alike come from different tables or passages of the source.

Chain of JAK1 (P23458 875-1153): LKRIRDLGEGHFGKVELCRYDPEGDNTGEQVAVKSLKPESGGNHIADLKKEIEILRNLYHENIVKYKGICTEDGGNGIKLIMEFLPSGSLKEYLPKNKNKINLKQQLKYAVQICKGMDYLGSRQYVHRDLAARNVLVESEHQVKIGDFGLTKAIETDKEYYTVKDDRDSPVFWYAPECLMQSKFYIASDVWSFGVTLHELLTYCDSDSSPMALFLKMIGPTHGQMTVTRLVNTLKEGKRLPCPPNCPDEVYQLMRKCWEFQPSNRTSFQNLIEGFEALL
Chain of JAK2 (O60674 849-1124): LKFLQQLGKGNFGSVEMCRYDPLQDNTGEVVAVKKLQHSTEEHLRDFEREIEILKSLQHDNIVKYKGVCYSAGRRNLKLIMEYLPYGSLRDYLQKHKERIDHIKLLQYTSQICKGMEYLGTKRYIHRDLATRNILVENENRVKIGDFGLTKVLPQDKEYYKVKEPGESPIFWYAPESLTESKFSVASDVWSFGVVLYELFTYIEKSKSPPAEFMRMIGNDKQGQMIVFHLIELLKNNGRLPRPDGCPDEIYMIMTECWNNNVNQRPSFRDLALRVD

As usually defined, the IC50 is the point on the concentration scale where inhibition reaches its midpoint. Regarding `CN(c1ccccc1)C1CCC(CC#N)(n2cc(C(N)=O)c(Nc3ccnc(F)c3)n2)CC1` (stereo not drawn) [Example 40-34, Cis or trans 1-{1-(cyanomethyl)-4-[methyl(phenyl)amino]cyclohexyl}-3-[(2-fluoropyridin-4-yl)amino]-1H-pyrazole-4-carboxamide], the 50% inhibitory concentration (IC50) is 4 nM in test [1] (setting [3]) and 105 nM in test [2] (setting [3]).
In the same order, the values of `N#CCC1(n2cc(C(N)=O)c(Nc3ccnc(F)c3)n2)CCC(Nc2ccc(F)c(F)c2)CC1` (stereo not drawn) [Example 40-36, Cis or trans 1-{1-(cyanomethyl)-4-[(3,4-difluorophenyl)amino]cyclohexyl}-3-[(2-fluoropyridin-4-yl)amino]-1H-pyrazole-4-carboxamide] are 65 nM and > 1500 nM.
Consider `N#CCC1(n2cc(C(N)=O)c(Nc3ccnc(F)c3)n2)CCC(Nc2ccc(F)cc2F)CC1` (stereo not drawn) [Example 40-37, Cis or trans 1-{1-(cyanomethyl)-4-[(2,4-difluorophenyl)amino]cyclohexyl}-3-[(2-fluoropyridin-4-yl)amino]-1H-pyrazole-4-carboxamide], for which the figures for the concentration for half-maximal inhibition (IC50) in test [1] (setting [3]) and in test [2] (setting [3]) were 16 nM and 506 nM, respectively.
In the same order, the values of `N#CCC1(n2cc(C(N)=O)c(Nc3ccc(F)cc3)n2)CCC(Nc2cccnc2)CC1` (stereo not drawn) [Example 40-39, Cis or trans 1-[1-(cyanomethyl)-4-(pyridin-3-ylamino)cyclohexyl]-3-[(4-fluorophenyl)amino]-1H-pyrazole-4-carboxamide] are 30 nM and 760 nM.
On to `N#CCC1(n2cc(C(N)=O)c(Nc3ccnc(F)c3)n2)CCC(Nc2ccc(F)cc2)CC1` (stereo not drawn) [Example 40-40, Cis or trans 1-{1-(cyanomethyl)-4-[(4-fluorophenyl)amino]cyclohexyl}-3-[(2-fluoropyridin-4-yl)amino]-1H-pyrazole-4-carboxamide], for which the IC50 was 0.2 nM in test [1] (setting [3]) and 9 nM in test [2] (setting [3]).
As for `N#CCC1(n2cc(C(N)=O)c(Nc3ccc(F)cc3)n2)CCC(N2CCC(O)CC2)CC1` (stereo not drawn) [Example 40-41, Cis or trans 1-[1-(cyanomethyl)-4-(4-hydroxypiperidin-1-yl)cyclohexyl]-3-[(4-fluorophenyl)amino]-1H-pyrazole-4-carboxamide], the IC50 in test [1] (setting [3]) is 584 nM; in test [2] (setting [3]), > 1500 nM.
As for `N#CCC1(n2cc(C(N)=O)c(Nc3ccc(S(=O)(=O)C(F)F)cc3)n2)CCC(N2CCC(F)(F)CC2)CC1` (stereo not drawn) [Example 40-42, Cis or trans 1-[1-(cyanomethyl)-4-(4,4-difluoropiperidin-1-yl)cyclohexyl]-3-({4-[(difluoromethyl)sulfonyl]phenyl}amino)-1H-pyrazole-4-carboxamide], the figures for the IC50 in test [1] (setting [3]) and in test [2] (setting [3]) were 64 nM and 775 nM, respectively.
On to `N#CCC1(n2cc(C(N)=O)c(Nc3ccc(S(=O)(=O)C(F)F)cc3)n2)CCC(N2CCC(O)CC2)CC1` (stereo not drawn) [Example 40-43, Cis or trans 1-[1-(cyanomethyl)-4-(4-hydroxypiperidin-1-yl)cyclohexyl]-3-({4-[(difluoromethyl)sulfonyl]phenyl}amino)-1H-pyrazole-4-carboxamide], for which the results for the IC50 in test [1] (setting [3]) and in test [2] (setting [3]) were 0.3 nM and 14 nM, respectively.
Take `N#CCC1(n2cc(C(N)=O)c(Nc3ccc(S(=O)(=O)C(F)F)cc3)n2)CCC(Nc2cccc(O)c2)CC1` (stereo not drawn) [Example 40-44, Cis or trans 1-{1-(cyanomethyl)-4-[(3-hydroxyphenyl)amino]cyclohexyl}-3-({4-[(difluoromethyl)sulfonyl]phenyl}amino)-1H-pyrazole-4-carboxamide]: the figures for the IC50 in test [1] and in test [2] were 0.1 nM and 0.8 nM, respectively.
`N#CCC1(n2cc(C(N)=O)c(Nc3ccnc(F)c3)n2)CCC(Nc2ccc(Cl)cc2)CC1` (stereo not drawn) [Example 40-45, Cis or trans 1-{4-[(4-chlorophenyl)amino]-1-(cyanomethyl)cyclohexyl}-3-[(2-fluoropyridin-4-yl)amino]-1H-pyrazole-4-carboxamide]: the values for the IC50 in test [1] (setting [3]) and in test [2] (setting [3]) were 38 nM and 770 nM, respectively.
For the compound `N#CCC1(n2cc(C(N)=O)c(Nc3ccnc(F)c3)n2)CCC(Nc2ccc(F)cc2)CC1` (stereo not drawn) [Example 40-47, Cis or trans 1-{1-(cyanomethyl)-4-[(4-fluorophenyl)amino]cyclohexyl}-3-[(2-fluoropyridin-4-yl)amino]-1H-pyrazole-4-carboxamide], the IC50 is 215 nM in test [1] (setting [3]) and > 1500 nM in test [2] (setting [3]).
The corresponding values for `N#CCC1(n2cc(C(N)=O)c(Nc3ccc(F)cc3)n2)CCC(N2CCc3ccccc32)CC1` (stereo not drawn) [Example 40-49, Cis or trans 1-[1-(cyanomethyl)-4-(2,3-dihydro-1H-indol-1-yl)cyclohexyl]-3-[(4-fluorophenyl)amino]-1H-pyrazole-4-carboxamide] are 5 nM and 137 nM.
Take `N#CCC1(n2cc(C(N)=O)c(Nc3ccnc(F)c3)n2)CCC(NC2CCCCC2)CC1` (stereo not drawn) [Example 40-51, Cis or trans 1-[1-(cyanomethyl)-4-(cyclohexylamino)cyclohexyl]-3-[(2-fluoropyridin-4-yl)amino]-1H-pyrazole-4-carboxamide]: the IC50 was 598 nM in test [1] (setting [3]) and > 1500 nM in test [2] (setting [3]).
The corresponding values for `N#CCC1(n2cc(C(N)=O)c(Nc3ccc(F)cc3)n2)CCC(Nc2ccc(Cl)cc2)CC1` (stereo not drawn) [Example 40-52, Cis or trans 1-{4-[(4-chlorophenyl)amino]-1-(cyanomethyl)cyclohexyl}-3-[(4-fluorophenyl)amino]-1H-pyrazole-4-carboxamide] are 0.6 nM and 20 nM.
As to `N#CCC1(n2cc(C(N)=O)c(Nc3ccc(F)cc3)n2)CCC(Nc2ccc(Cl)cc2)CC1` (stereo not drawn) [Example 40-53, Cis or trans 1-{4-[(4-chlorophenyl)amino]-1-(cyanomethyl)cyclohexyl}-3-[(4-fluorophenyl)amino]-1H-pyrazole-4-carboxamide], the results for the half-inhibitory concentration (IC50) in test [1] (setting [3]) and in test [2] (setting [3]) were 400 nM and > 1500 nM, respectively.
`N#CCC1(n2cc(C(N)=O)c(Nc3ccnc(F)c3)n2)CCC(N2CCc3ccccc32)CC1` (stereo not drawn) [Example 40-54, Cis or trans 1-[1-(cyanomethyl)-4-(2,3-dihydro-1H-indol-1-yl)cyclohexyl]-3-[(2-fluoropyridin-4-yl)amino]-1H-pyrazole-4-carboxamide]: the half-inhibitory concentration (IC50) is 0.9 nM in test [1] (setting [3]) and 24 nM in test [2] (setting [3]).
The corresponding values for `N#CCC1(n2cc(C(N)=O)c(Nc3ccnc(F)c3)n2)CCC(Nc2cccc(F)c2)CC1` (stereo not drawn) [Example 40-55, Cis or trans 1-{1-(cyanomethyl)-4-[(3-fluorophenyl)amino]cyclohexyl}-3-[(2-fluoropyridin-4-yl)amino]-1H-pyrazole-4-carboxamide] are 13 nM and 409 nM.
As for `N#CCC1(n2cc(C(N)=O)c(Nc3ccc(S(=O)(=O)C(F)F)cc3)n2)CCC(NC2CCCCC2)CC1` (stereo not drawn) [Example 40-57, Cis or trans 1-[1-(cyanomethyl)-4-(cyclohexylamino)cyclohexyl]-3-({4-[(difluoromethyl)sulfonyl]phenyl}amino)-1H-pyrazole-4-carboxamide], the 50% inhibitory concentration (IC50) is 415 nM in test [1] and > 1500 nM in test [2] (setting [3]).
In the case of `N#CCC1(n2cc(C(N)=O)c(Nc3ccc(F)cc3)n2)CCC(Nc2ccccc2F)CC1` (stereo not drawn) [Example 40-58, Cis or trans 1-{1-(cyanomethyl)-4-[(2-fluorophenyl)amino]cyclohexyl}-3-[(4-fluorophenyl)amino]-1H-pyrazole-4-carboxamide], the 50% inhibitory concentration (IC50) in test [1] (setting [3]) amounted to 0.2 nM; in test [2] (setting [3]), 7 nM.
With `N#CCC1(n2cc(C(N)=O)c(Nc3ccc(F)cc3)n2)CCC(Nc2ccccc2F)CC1` (stereo not drawn) [Example 40-60, Cis or trans 1-{1-(cyanomethyl)-4-[(2-fluorophenyl)amino]cyclohexyl}-3-[(4-fluorophenyl)amino]-1H-pyrazole-4-carboxamide], the IC50 in test [1] (setting [3]) was found to be 45 nM; in test [2] (setting [3]) it was 758 nM.
As for `N#CCC1(n2cc(C(N)=O)c(Nc3ccnc(F)c3)n2)CCC(Nc2ccc(Cl)cc2)CC1` (stereo not drawn) [Example 40-61, Cis or trans 1-{4-[(4-chlorophenyl)amino]-1-(cyanomethyl)cyclohexyl}-3-[(2-fluoropyridin-4-yl)amino]-1H-pyrazole-4-carboxamide], the figures for the IC50 in test [1] (setting [3]) and in test [2] (setting [3]) were 0.06 nM and 3 nM, respectively.
The corresponding values for `N#CCC1(n2cc(C(N)=O)c(Nc3ccnc(F)c3)n2)CCC(Nc2cccc(Cl)c2)CC1` (stereo not drawn) [Example 40-62, Cis or trans 1-{4-[(3-chlorophenyl)amino]-1-(cyanomethyl)cyclohexyl}-3-[(2-fluoropyridin-4-yl)amino]-1H-pyrazole-4-carboxamide] are 38 nM and 832 nM.
In the same order, the values of `N#CCC1(n2cc(C(N)=O)c(Nc3ccnc(F)c3)n2)CCC(Nc2cc(F)ccc2F)CC1` (stereo not drawn) [Example 40-63, Cis or trans 1-{1-(cyanomethyl)-4-[(2,5-difluorophenyl)amino]cyclohexyl}-3-[(2-fluoropyridin-4-yl)amino]-1H-pyrazole-4-carboxamide] are 0.03 nM and 1 nM.
In the same order, the values of `N#CCC1(n2cc(C(N)=O)c(Nc3ccnc(F)c3)n2)CCC(Nc2cccc(F)c2)CC1` (stereo not drawn) [Example 40-64, Cis or trans 1-{1-(cyanomethyl)-4-[(3-fluorophenyl)amino]cyclohexyl}-3-[(2-fluoropyridin-4-yl)amino]-1H-pyrazole-4-carboxamide] are 0.05 nM and 2 nM.
`N#CCC1(n2cc(C(N)=O)c(Nc3ccc(S(=O)(=O)C(F)F)cc3)n2)CCC(NC2CCOCC2)CC1` (stereo not drawn) [Example 40-66, Cis or trans 1-[1-(cyanomethyl)-4-(tetrahydro-2H-pyran-4-ylamino)cyclohexyl]-3-({4-[(difluoromethyl)sulfonyl]phenyl}amino)-1H-pyrazole-4-carboxamide]: the IC50 in test [1] (setting [3]) was 344 nM; in test [2] (setting [3]), > 1500 nM.
With `N#CCC1(n2cc(C(N)=O)c(Nc3ccc(S(=O)(=O)C(F)F)cc3)n2)CCC(N2CCC(O)CC2)CC1` (stereo not drawn) [Example 40-67, Cis or trans 1-[1-(cyanomethyl)-4-(4-hydroxypiperidin-1-yl)cyclohexyl]-3-({4-[(difluoromethyl)sulfonyl]phenyl}amino)-1H-pyrazole-4-carboxamide], the results for the half-inhibitory concentration (IC50) in test [1] (setting [3]) and in test [2] (setting [3]) were 37 nM and 773 nM, respectively.
